Data reported in patent US20080090805A1, “CB-1 MODULATING COMPOUNDS AND THEIR USE” (ACADIA PHARMACEUTICALS INC., priority 2005, published 2008).

Target: CB1 (mutant) (Homo sapiens, UniProt P21554)
Assay: R-SAT functional receptor assay, CB1 (mutant, truncated after amino acid 417)
Type: cell-based
Conditions: Appendix A, R-SAT CB1; for IC50 / pIC50: receptor form (mutant or wild-type) not stated; for IC50: read-out: pIC50 (converted); for Emax: receptor form not stated, relative to SR141716 (100%), read-out: % Inhibition

CB1 (mutant), sequence (P21554 1-417, change not shown): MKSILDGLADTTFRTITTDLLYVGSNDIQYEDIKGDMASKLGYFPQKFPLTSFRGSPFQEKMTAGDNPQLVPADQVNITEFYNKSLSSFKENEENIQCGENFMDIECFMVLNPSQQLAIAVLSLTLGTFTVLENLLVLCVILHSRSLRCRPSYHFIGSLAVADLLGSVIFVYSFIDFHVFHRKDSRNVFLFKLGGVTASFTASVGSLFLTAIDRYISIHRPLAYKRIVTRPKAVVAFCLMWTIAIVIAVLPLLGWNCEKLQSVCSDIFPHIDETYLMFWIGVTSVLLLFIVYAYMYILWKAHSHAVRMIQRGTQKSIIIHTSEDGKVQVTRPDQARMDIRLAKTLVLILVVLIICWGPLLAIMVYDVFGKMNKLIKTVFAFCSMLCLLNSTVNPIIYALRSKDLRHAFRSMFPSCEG

Row | SMILES | IC50 | Emax | pIC50
1 | CCCCNC(=O)c1ccc2c(c1)N=C(C#C[Si](C)(C)C)c1ccccc1S2 | 631 nM | 64% | 
2 | CCCCN(C)CCCNC(=O)c1ccc2c(c1)N=C(CCC)c1ccccc1S2 | 794 nM | 124% | 
3 | CCOCCNC(=O)c1ccc2c(c1)N=C(N1CCCCC1)c1ccccc1S2 | 794 nM | 103% | 
4 | CCCC1=Nc2cc(C(=O)NCCc3ccc(OC)c(OC)c3)ccc2Sc2ccccc21 | 31.6 nM | 105% | 
5 | CCCC1=Nc2cc(C(=O)NCc3ccco3)ccc2Sc2ccccc21 | 31.6 nM | 103% | 
6 | O=C(NCc1ccncc1)c1ccc2c(c1)N=C(NCc1ccc(Cl)cc1)c1ccccc1S2 | 794 nM | 56% | 
7 | CCCNC(=O)c1ccc2c(c1)N=C(CCC)c1ccccc1S2 | 31.6 nM | 95% | 
8 | CCCC1=Nc2cc(C(=O)NC(C)CCN(C)C(=O)OCC)ccc2Sc2ccc(C)cc21 (centres unmarked) | 1000 nM | 79% | 
9 | CCCCN(C)C(=O)c1ccc2c(c1)N=C(c1ccccn1)c1ccccc1S2 | 1000 nM | 57% | 
10 | CONC(=O)c1ccc2c(c1)N=C(c1ccc(C#N)cc1)c1ccccc1S2 |  | 36% | 1.0
11 | CON(C)C(=O)c1ccc2c(c1)N=C(c1ccccc1Cl)c1ccccc1S2 |  | 10% | 1.0
12 | CCONC(=O)c1ccc2c(c1)N=C(c1ccccc1Cl)c1ccccc1S2 |  | 19% | 1.0
13 | CON(C)C(=O)c1ccc2c(c1)N=C(c1ccccn1)c1ccccc1S2 |  | 8% | 1.0
14 | CONC(=O)c1ccc2c(c1)N=C(c1ccc(Cl)cc1Cl)c1ccccc1S2 |  | -27% | 1.0
15 | COCCNC(=O)c1ccc2c(c1)N=C(c1ncccc1C)c1ccccc1S2 |  | -6% | 1.0
16 | CONC(=O)c1ccc2c(c1)N=C(c1ncccc1C)c1ccccc1S2 |  | 8% | 1.0
17 | CCONC(=O)c1ccc2c(c1)N=C(c1ncccc1C)c1ccccc1S2 |  | 21% | 1.0

Continued, values first:

Row | IC50 | Emax | pIC50 | SMILES
18 | 631 nM | 118% |  | CCCC1=Nc2cc(C(=O)NCCCN3CCN(C4CCCCC4)CC3)ccc2Sc2ccccc21
19 | 631 nM | 95% |  | CCCC1=Nc2cc(C(=O)N3CCc4ccccc4C3)ccc2Sc2ccccc21
20 | 794 nM | 99% |  | O=C(NN1CCOCC1)c1ccc2c(c1)N=C(N1CCCCC1)c1ccccc1S2
21 | 794 nM | 60% |  | CC(C)NC(=O)c1ccc2c(c1)N=C(c1ccccn1)c1ccccc1S2
22 | 794 nM | 59% |  | O=C(NC1CCCC1)c1ccc2c(c1)N=C(c1ccccc1Cl)c1ccccc1S2
23 | 794 nM | 62% |  | COCCNC(=O)c1ccc2c(c1)N=C(c1ccccc1Cl)c1ccccc1S2
24 | 794 nM | 42% |  | CON(C)C(=O)c1ccc2c(c1)N=C(c1sccc1C)c1ccccc1S2
25 | 794 nM | 68% |  | CONC(=O)c1ccc2c(c1)N=C(c1ccc(Br)cc1)c1ccccc1S2
26 | 794 nM | 98% |  | CCCC1=Nc2cc(C(=O)NCCc3ccccc3)ccc2Sc2ccccc21
27 | 794 nM | 67% |  | O=C(NCc1ccncc1)c1ccc2c(c1)N=C(c1ccccc1Cl)c1ccccc1S2
28 | 31.6 nM | 90% |  | O=C(NCc1ccc(Cl)cc1Cl)c1ccc2c(c1)N=C(C1CCCCC1)c1ccccc1S2
29 | 1000 nM | 77% |  | CCCC1=Nc2cc(C(=O)N3CCN(C(=O)OCC)CC3)ccc2Sc2ccccc21
30 |  | 3% | 1.0 | CCONC(=O)c1ccc2c(c1)N=C(c1ccccn1)c1ccccc1S2
31 |  | -15% | 1.0 | CONC(=O)c1ccc2c(c1)N=C(c1ccccc1Cl)c1ccccc1S2
32 |  | 0% | 1.0 | CON(C)C(=O)c1ccc2c(c1)N=C(c1ncccc1C)c1ccccc1S2
33 |  | 14% | 1.0 | CCCCN(C)C(=O)c1ccc2c(c1)N=C(c1ncccc1C)c1ccccc1S2
34 |  | 18% | 1.0 | CON(C)C(=O)c1ccc2c(c1)N=C(c1ccc(Cl)cc1Cl)c1ccccc1S2
